# Measurements from PubChem BioAssay AID2060488 (Molecular Pharmacology Branch, DTP, NCI, 2025).
# Tested on: 966289-007-R4-J1-PDC complex spheroid viability
# Assay: Anticancer human tumor 966289-007-R4-J1-PDC patient-derived pancreatic adenocarcinoma cell line growth inhibition [GQUAD]
# Conditions: for IC50: curve of first compound; for viability, T/C: stronger effect = lower value
# Outline: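 Multi-cell-type spheroids of tumor cells with HUVEC and mesenchymal stem cells, treated with drug combinations. Concentrations descend in half-log steps from near clinical Cmax, or from 10 microM where Cmax is unknown; viability read-out.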
# [1] = second compound 0.0316 µM, first compound 0.0316 µM
# [2] = second compound 0.0316 µM, first compound 0.316 µM
# [3] = second compound 0.1 µM, first compound 0.0316 µM
# [4] = second compound 0.1 µM, first compound 0.316 µM
# [5] = second compound 0.316 µM, first compound 0.0316 µM
# [6] = second compound 0.316 µM, first compound 0.316 µM
# [7] = second compound 1 µM, first compound 0.0316 µM
# [8] = second compound 1 µM, first compound 0.316 µM
# [9] = second compound 3.16 µM, first compound 0.0316 µM
# [10] = second compound 3.16 µM, first compound 0.316 µM
# [11] = second compound 10 µM, first compound 0.0316 µM
# [12] = second compound 10 µM, first compound 0.316 µM
# [13] = second compound 0.0316 µM, first compound 0.1 µM
# [14] = second compound 0.0316 µM, first compound 1 µM
# [15] = second compound 0.0316 µM, first compound 3.16 µM
# [16] = second compound 0.0316 µM, first compound 10 µM
# [17] = second compound 0.1 µM, first compound 0.1 µM
# [18] = second compound 0.1 µM, first compound 1 µM
# [19] = second compound 0.1 µM, first compound 3.16 µM
# [20] = second compound 0.1 µM, first compound 10 µM
# [21] = second compound 0.316 µM, first compound 0.1 µM
# [22] = second compound 0.316 µM, first compound 1 µM
# [23] = second compound 0.316 µM, first compound 3.16 µM
# [24] = second compound 0.316 µM, first compound 10 µM
# [25] = second compound 1 µM, first compound 0.1 µM
# [26] = second compound 1 µM, first compound 1 µM
# [27] = second compound 1 µM, first compound 3.16 µM
# [28] = second compound 1 µM, first compound 10 µM
# [29] = second compound 3.16 µM, first compound 0.1 µM
# [30] = second compound 3.16 µM, first compound 1 µM
# [31] = second compound 3.16 µM, first compound 3.16 µM
# [32] = second compound 3.16 µM, first compound 10 µM
# [33] = second compound 10 µM, first compound 0.1 µM
# [34] = second compound 10 µM, first compound 1 µM
# [35] = second compound 10 µM, first compound 3.16 µM
# [36] = second compound 10 µM, first compound 10 µM
# 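Also: spheroids exposed to the agents for seven days before readout.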
# 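For viability, T/C in this document: percent viability relative to DMSO vehicle control wells taken as 100%.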
compound,measurement,setting,value
Cc1[nH]c2ccccc2c1CCNCc1ccc(/C=C/C(=O)NO)cc1 + CN(C)c1ccc(Nc2c3ccc(NC(=O)CCN4CCCC4)cc3nc3cc(NC(=O)CCN4CCCC4)ccc23)cc1,IC50,second compound 0.0316 µM,78 nM
same,IC50,second compound 0.1 µM,68.4 nM
same,IC50,second compound 0.316 µM,75 nM
same,IC50,second compound 1 µM,67.5 nM
same,IC50,second compound 3.16 µM,54.3 nM
same,IC50,second compound 10 µM,46.9 nM
same,"viability, T/C","second compound 0.0316 µM, first compound 0.000999 µM",106%
same,"viability, T/C","second compound 0.0316 µM, first compound 0.00316 µM",95.3%
same,"viability, T/C","second compound 0.0316 µM, first compound 0.00999 µM",109%
same,"viability, T/C",[1],85.8%
same,"viability, T/C","second compound 0.0316 µM, first compound 0.0999 µM",40.2%
same,"viability, T/C",[2],5.05%
same,"viability, T/C","second compound 0.1 µM, first compound 0.000999 µM",106%
same,"viability, T/C","second compound 0.1 µM, first compound 0.00316 µM",102%
same,"viability, T/C","second compound 0.1 µM, first compound 0.00999 µM",109%
same,"viability, T/C",[3],87.8%
same,"viability, T/C","second compound 0.1 µM, first compound 0.0999 µM",31.4%
same,"viability, T/C",[4],4.54%
same,"viability, T/C","second compound 0.316 µM, first compound 0.000999 µM",94.7%
same,"viability, T/C","second compound 0.316 µM, first compound 0.00316 µM",97.8%
same,"viability, T/C","second compound 0.316 µM, first compound 0.00999 µM",109%
same,"viability, T/C",[5],101%
same,"viability, T/C","second compound 0.316 µM, first compound 0.0999 µM",33.1%
same,"viability, T/C",[6],3.99%
same,"viability, T/C","second compound 1 µM, first compound 0.000999 µM",98.9%
same,"viability, T/C","second compound 1 µM, first compound 0.00316 µM",100%
same,"viability, T/C","second compound 1 µM, first compound 0.00999 µM",108%
same,"viability, T/C",[7],98.2%
same,"viability, T/C","second compound 1 µM, first compound 0.0999 µM",25%
same,"viability, T/C",[8],3.89%
same,"viability, T/C","second compound 3.16 µM, first compound 0.000999 µM",98.3%
same,"viability, T/C","second compound 3.16 µM, first compound 0.00316 µM",104%
same,"viability, T/C","second compound 3.16 µM, first compound 0.00999 µM",104%
same,"viability, T/C",[9],81%
same,"viability, T/C","second compound 3.16 µM, first compound 0.0999 µM",14.8%
same,"viability, T/C",[10],1.84%
same,"viability, T/C","second compound 10 µM, first compound 0.000999 µM",100%
same,"viability, T/C","second compound 10 µM, first compound 0.00316 µM",104%
same,"viability, T/C","second compound 10 µM, first compound 0.00999 µM",108%
same,"viability, T/C",[11],74.8%
same,"viability, T/C","second compound 10 µM, first compound 0.0999 µM",2.99%
same,"viability, T/C",[12],0.49%
CC(=O)O[C@H]1C(=O)[C@@]2(C)[C@H]([C@H](OC(=O)c3ccccc3)[C@]3(O)C[C@H](OC(=O)[C@H](O)[C@@H](NC(=O)c4ccccc4)c4ccccc4)C(C)=C1C3(C)C)[C@]1(OC(C)=O)CO[C@@H]1C[C@@H]2O + Cc1cnc(CNC(=O)c2c(=O)c3ccc(N4CCCN(C)CC4)nc3n3c2sc2ccccc23)cn1,IC50,second compound 0.0316 µM,< 31.6 nM
same,IC50,second compound 0.1 µM,< 31.6 nM
same,IC50,second compound 0.316 µM,< 31.6 nM
same,IC50,second compound 1 µM,< 31.6 nM
same,IC50,second compound 3.16 µM,< 31.6 nM
same,IC50,second compound 10 µM,< 31.6 nM
same,"viability, T/C",[1],3.55%
same,"viability, T/C",[13],2.41%
same,"viability, T/C",[2],2.38%
same,"viability, T/C",[14],2.61%
same,"viability, T/C",[15],4.35%
same,"viability, T/C",[16],6.47%
same,"viability, T/C",[3],3.6%
same,"viability, T/C",[17],2.87%
same,"viability, T/C",[4],3.34%
same,"viability, T/C",[18],3.44%
same,"viability, T/C",[19],4.23%
same,"viability, T/C",[20],5.96%
same,"viability, T/C",[5],6.14%
same,"viability, T/C",[21],5.32%
same,"viability, T/C",[6],4.53%
same,"viability, T/C",[22],4.82%
same,"viability, T/C",[23],6.03%
same,"viability, T/C",[24],6.11%
same,"viability, T/C",[7],4.85%
same,"viability, T/C",[25],3.94%
same,"viability, T/C",[8],4.08%
same,"viability, T/C",[26],3.75%
same,"viability, T/C",[27],5.24%
same,"viability, T/C",[28],5.33%
same,"viability, T/C",[9],3.56%
same,"viability, T/C",[29],2.87%
same,"viability, T/C",[10],3.36%
same,"viability, T/C",[30],2.75%
same,"viability, T/C",[31],3.86%
same,"viability, T/C",[32],3.56%
same,"viability, T/C",[11],0.08%
same,"viability, T/C",[33],0.11%
same,"viability, T/C",[12],0.1%
same,"viability, T/C",[34],0.09%
same,"viability, T/C",[35],0.1%
same,"viability, T/C",[36],0.11%
COc1ccc([C@@H](O)c2cc(-c3ncnc4cc(N5CCOCC5)ccc34)c(F)cc2Cl)nn1 + Cc1[nH]c2ccc(F)cc2c1-c1nc2c3cccnc3c3ncccc3c2[nH]1,IC50,second compound 0.0316 µM,> 10000 nM
same,IC50,second compound 0.1 µM,> 10000 nM
same,IC50,second compound 0.316 µM,> 10000 nM
same,IC50,second compound 1 µM,> 10000 nM
same,IC50,second compound 3.16 µM,> 10000 nM
same,IC50,second compound 10 µM,> 10000 nM
same,"viability, T/C",[1],106%
same,"viability, T/C",[13],94.7%
same,"viability, T/C",[2],108%
same,"viability, T/C",[14],104%
same,"viability, T/C",[15],112%
same,"viability, T/C",[16],85.6%
same,"viability, T/C",[3],107%
same,"viability, T/C",[17],101%
same,"viability, T/C",[4],106%
same,"viability, T/C",[18],104%
same,"viability, T/C",[19],111%
same,"viability, T/C",[20],87.8%
same,"viability, T/C",[5],94.5%
same,"viability, T/C",[21],102%
same,"viability, T/C",[6],104%
same,"viability, T/C",[22],108%
same,"viability, T/C",[23],111%
same,"viability, T/C",[24],92.9%
same,"viability, T/C",[7],91.3%
same,"viability, T/C",[25],98.4%
same,"viability, T/C",[8],108%
same,"viability, T/C",[26],106%
same,"viability, T/C",[27],109%
same,"viability, T/C",[28],87.8%
same,"viability, T/C",[9],100%
same,"viability, T/C",[29],103%
same,"viability, T/C",[10],109%
same,"viability, T/C",[30],108%
same,"viability, T/C",[31],103%
same,"viability, T/C",[32],70.7%
same,"viability, T/C",[11],103%
same,"viability, T/C",[33],103%
same,"viability, T/C",[12],106%
same,"viability, T/C",[34],102%
same,"viability, T/C",[35],105%
same,"viability, T/C",[36],56.3%
